“And” between values parts separate entries of the source, which are not always exact repeats. Equal values may be shown once.
What was measured:
[1] = biological target: T1, RyR2 (Sus scrofa, UniProt A0A5G2R1W3); experiment: [3H]ryanodine ligand binding assay in cardiac SR vesicles; parameters: species or system porcine; conditions: relative to vehicle (DMSO)
T1 construct: isolated SR vesicles derived from porcine cardiac muscle; from tissue; host or cells: porcine heart (cardiac sarcoplasmic reticulum vesicles)
Method: RyR2 activity was quantified by the fraction of [^3H]ryanodine bound to RyR2. […] Data are shown as mean±SD (n=6).
[^3H]ryanodine ligand binding assay—[^3H]ryanodine, [9,21-3H(N)] (56 Ci/mmol) was obtained from PerkinElmer. Porcine cardiac SR vesicles were isolated as previously described (Fruen et al., 2000) and incubated with, 200 nM CaM binding peptide, 0.1 μM CaCl2, 20 mM PIPES, 150 mM KCl, 5 mM GSH, 0.1 mg/mL BSA, 1 μg/mL aprotininin, lug/mL leupeptin, and 1 μM DTT for 30 min at 37° C. […] In 96-well plates, cardiac SR membranes (CSR, 3 mg/mL) were pre-incubated with 1% v/v ent-B1 (to yield the indicated drug concentrations) for 30 min, at 22° C., in a solution containing 150 mM KCl, 5 mM GSH, 1 μg/mL Aprotinin/Leupeptin, 1 mM EGTA, and 23 μM or 1.62 mM CaCl2 (100 nM or 30 μM free Ca^2+, respectively as determined by MaxChelator), 0.1 mg/mL BSA, and 20 mM K-PIPES (pH 7.0). Non-specific [^3H]ryanodine binding to SR was assessed by addition of 15 μM non-radioactive ryanodine. Maximal [^3H]ryanodine binding was assessed by addition of 5 mM adenylyl-imidodiphosphate (AMP-PNP), supplemented with 20 mM caffeine. […] Binding of [^3H]ryanodine (7.5 nM) was determined following a 3 h incubation at 37° C. and filtration through grade GF/B glass microfiber filters (Brandel Inc., Gaithersburg, MD, US) using a M96T-Brandel Harvester. […]

[2] = Plasma stability ex vivo; type: in vitro ADME; conditions: mouse; murine plasma, 37° C., two hours; read-out: parent compound remaining in plasma
Method: FIGS. 11(A-B) show in vivo pharmacokinetics in mice for a compound of the present invention. […] N=3 mice. Plasma collected serially at 0.167, 0.333. 0.5, 1, 3, and 8 hours post-administration. […] Individual data points (grey) shown alongside mean values with connecting lines.
Plasma stability experiments—Drug-free mouse plasma was preincubated in a 96-well polypropylene plate for 30 minutes on a microplate shaker at 37° C. prior to the addition of ent-B1 (final concentration 1900 ng/mL). Drug was added to individual wells (n=3 per compound), mixed thoroughly, and 50 μL of plasma was removed at 0, 15, 30, 45 60, 90, and 120 minutes to evaluate compound stability in mouse plasma at 37° C. Samples removed at each time point were transferred to a 96-well polypropylene plate containing 300 μL of ice-cold acetonitrile containing internal standard (ent-verticilide-d12; 100 ng/mL). Samples were mixed multiple times with a pipette to ensure precipitation of plasma proteins and the plate was covered with an adhesive film to prevent solvent evaporation. […] Peak area ratios of the analyte and internal standard for each sample were analyzed by liquid chromatography coupled to tandem mass spectrometry (LC-MS/MS) and normalized to the area ratio for time point 0 (baseline) to calculate the percent of ent-B1 remaining at each time point. […]

[3] = biological target: T2, RyR2 (Mus musculus, UniProt E9Q401); experiment: Calcium spark frequency in permeabilized Casq2 knockout cardiomyocytes (screen for RyR2 activity); type: cell-based
T2 construct: spontaneous openings of intracellular RyR2 Ca^2+ release channels; endogenous in cells; host or cells: ventricular cardiomyocytes isolated from Casq2-/- mice (saponin-permeabilized in A1, intact in A7)
Method: FIGS. 3(A)-3(E) show a biological screen for cardiac ryanodine receptor (RyR2) activity. Note that ‘ent-24’=9, and ‘ent-18’ refers to structure 8 in FIG. 1, which is also the enantiomer of a natural product. (3A) Calcium spark frequency in permeabilized murine cardiomyocytes was recorded as an index of RyR2 activity. Compounds were screened at 25 uM concentration after 10-minute incubation. *=p<0.001 by one-way ANOVA with Tukey's post-hoc test. (3B) Incubation time was extended to 60 minutes for the 12- and 30-membered rings. (3C) The seco-acid precursors to 12- and 18-membered rings were tested at 25 uM. (3D) Concentration response curve for the 18-membered ring and (3E) 24-membered ring. Cells were incubated for 30 minutes
Activity of Ring-Size Analogues. […] Ventricular cardiomyocytes were isolated, permeabilized with saponin, and incubated with vehicle (DMSO) or 25 μM of selected compound. RyR2 activity was measured in the form of calcium sparks, which are elementary Ca^2+ release events generated by spontaneous openings of intracellular RyR2 Ca^2+ release channels. Importantly, saponin selectively permeabilizes the sarcolemmal membrane, leaving the SR membrane intact and ensuring equivalent access of the compounds to the SR membrane where RyR2 resides.
The compounds were first screened by incubating cardiomyocytes for 10 minutes at 25 μM concentration and compared to vehicle (DMSO) conditions.

T2 sequence (E9Q401 whole entry): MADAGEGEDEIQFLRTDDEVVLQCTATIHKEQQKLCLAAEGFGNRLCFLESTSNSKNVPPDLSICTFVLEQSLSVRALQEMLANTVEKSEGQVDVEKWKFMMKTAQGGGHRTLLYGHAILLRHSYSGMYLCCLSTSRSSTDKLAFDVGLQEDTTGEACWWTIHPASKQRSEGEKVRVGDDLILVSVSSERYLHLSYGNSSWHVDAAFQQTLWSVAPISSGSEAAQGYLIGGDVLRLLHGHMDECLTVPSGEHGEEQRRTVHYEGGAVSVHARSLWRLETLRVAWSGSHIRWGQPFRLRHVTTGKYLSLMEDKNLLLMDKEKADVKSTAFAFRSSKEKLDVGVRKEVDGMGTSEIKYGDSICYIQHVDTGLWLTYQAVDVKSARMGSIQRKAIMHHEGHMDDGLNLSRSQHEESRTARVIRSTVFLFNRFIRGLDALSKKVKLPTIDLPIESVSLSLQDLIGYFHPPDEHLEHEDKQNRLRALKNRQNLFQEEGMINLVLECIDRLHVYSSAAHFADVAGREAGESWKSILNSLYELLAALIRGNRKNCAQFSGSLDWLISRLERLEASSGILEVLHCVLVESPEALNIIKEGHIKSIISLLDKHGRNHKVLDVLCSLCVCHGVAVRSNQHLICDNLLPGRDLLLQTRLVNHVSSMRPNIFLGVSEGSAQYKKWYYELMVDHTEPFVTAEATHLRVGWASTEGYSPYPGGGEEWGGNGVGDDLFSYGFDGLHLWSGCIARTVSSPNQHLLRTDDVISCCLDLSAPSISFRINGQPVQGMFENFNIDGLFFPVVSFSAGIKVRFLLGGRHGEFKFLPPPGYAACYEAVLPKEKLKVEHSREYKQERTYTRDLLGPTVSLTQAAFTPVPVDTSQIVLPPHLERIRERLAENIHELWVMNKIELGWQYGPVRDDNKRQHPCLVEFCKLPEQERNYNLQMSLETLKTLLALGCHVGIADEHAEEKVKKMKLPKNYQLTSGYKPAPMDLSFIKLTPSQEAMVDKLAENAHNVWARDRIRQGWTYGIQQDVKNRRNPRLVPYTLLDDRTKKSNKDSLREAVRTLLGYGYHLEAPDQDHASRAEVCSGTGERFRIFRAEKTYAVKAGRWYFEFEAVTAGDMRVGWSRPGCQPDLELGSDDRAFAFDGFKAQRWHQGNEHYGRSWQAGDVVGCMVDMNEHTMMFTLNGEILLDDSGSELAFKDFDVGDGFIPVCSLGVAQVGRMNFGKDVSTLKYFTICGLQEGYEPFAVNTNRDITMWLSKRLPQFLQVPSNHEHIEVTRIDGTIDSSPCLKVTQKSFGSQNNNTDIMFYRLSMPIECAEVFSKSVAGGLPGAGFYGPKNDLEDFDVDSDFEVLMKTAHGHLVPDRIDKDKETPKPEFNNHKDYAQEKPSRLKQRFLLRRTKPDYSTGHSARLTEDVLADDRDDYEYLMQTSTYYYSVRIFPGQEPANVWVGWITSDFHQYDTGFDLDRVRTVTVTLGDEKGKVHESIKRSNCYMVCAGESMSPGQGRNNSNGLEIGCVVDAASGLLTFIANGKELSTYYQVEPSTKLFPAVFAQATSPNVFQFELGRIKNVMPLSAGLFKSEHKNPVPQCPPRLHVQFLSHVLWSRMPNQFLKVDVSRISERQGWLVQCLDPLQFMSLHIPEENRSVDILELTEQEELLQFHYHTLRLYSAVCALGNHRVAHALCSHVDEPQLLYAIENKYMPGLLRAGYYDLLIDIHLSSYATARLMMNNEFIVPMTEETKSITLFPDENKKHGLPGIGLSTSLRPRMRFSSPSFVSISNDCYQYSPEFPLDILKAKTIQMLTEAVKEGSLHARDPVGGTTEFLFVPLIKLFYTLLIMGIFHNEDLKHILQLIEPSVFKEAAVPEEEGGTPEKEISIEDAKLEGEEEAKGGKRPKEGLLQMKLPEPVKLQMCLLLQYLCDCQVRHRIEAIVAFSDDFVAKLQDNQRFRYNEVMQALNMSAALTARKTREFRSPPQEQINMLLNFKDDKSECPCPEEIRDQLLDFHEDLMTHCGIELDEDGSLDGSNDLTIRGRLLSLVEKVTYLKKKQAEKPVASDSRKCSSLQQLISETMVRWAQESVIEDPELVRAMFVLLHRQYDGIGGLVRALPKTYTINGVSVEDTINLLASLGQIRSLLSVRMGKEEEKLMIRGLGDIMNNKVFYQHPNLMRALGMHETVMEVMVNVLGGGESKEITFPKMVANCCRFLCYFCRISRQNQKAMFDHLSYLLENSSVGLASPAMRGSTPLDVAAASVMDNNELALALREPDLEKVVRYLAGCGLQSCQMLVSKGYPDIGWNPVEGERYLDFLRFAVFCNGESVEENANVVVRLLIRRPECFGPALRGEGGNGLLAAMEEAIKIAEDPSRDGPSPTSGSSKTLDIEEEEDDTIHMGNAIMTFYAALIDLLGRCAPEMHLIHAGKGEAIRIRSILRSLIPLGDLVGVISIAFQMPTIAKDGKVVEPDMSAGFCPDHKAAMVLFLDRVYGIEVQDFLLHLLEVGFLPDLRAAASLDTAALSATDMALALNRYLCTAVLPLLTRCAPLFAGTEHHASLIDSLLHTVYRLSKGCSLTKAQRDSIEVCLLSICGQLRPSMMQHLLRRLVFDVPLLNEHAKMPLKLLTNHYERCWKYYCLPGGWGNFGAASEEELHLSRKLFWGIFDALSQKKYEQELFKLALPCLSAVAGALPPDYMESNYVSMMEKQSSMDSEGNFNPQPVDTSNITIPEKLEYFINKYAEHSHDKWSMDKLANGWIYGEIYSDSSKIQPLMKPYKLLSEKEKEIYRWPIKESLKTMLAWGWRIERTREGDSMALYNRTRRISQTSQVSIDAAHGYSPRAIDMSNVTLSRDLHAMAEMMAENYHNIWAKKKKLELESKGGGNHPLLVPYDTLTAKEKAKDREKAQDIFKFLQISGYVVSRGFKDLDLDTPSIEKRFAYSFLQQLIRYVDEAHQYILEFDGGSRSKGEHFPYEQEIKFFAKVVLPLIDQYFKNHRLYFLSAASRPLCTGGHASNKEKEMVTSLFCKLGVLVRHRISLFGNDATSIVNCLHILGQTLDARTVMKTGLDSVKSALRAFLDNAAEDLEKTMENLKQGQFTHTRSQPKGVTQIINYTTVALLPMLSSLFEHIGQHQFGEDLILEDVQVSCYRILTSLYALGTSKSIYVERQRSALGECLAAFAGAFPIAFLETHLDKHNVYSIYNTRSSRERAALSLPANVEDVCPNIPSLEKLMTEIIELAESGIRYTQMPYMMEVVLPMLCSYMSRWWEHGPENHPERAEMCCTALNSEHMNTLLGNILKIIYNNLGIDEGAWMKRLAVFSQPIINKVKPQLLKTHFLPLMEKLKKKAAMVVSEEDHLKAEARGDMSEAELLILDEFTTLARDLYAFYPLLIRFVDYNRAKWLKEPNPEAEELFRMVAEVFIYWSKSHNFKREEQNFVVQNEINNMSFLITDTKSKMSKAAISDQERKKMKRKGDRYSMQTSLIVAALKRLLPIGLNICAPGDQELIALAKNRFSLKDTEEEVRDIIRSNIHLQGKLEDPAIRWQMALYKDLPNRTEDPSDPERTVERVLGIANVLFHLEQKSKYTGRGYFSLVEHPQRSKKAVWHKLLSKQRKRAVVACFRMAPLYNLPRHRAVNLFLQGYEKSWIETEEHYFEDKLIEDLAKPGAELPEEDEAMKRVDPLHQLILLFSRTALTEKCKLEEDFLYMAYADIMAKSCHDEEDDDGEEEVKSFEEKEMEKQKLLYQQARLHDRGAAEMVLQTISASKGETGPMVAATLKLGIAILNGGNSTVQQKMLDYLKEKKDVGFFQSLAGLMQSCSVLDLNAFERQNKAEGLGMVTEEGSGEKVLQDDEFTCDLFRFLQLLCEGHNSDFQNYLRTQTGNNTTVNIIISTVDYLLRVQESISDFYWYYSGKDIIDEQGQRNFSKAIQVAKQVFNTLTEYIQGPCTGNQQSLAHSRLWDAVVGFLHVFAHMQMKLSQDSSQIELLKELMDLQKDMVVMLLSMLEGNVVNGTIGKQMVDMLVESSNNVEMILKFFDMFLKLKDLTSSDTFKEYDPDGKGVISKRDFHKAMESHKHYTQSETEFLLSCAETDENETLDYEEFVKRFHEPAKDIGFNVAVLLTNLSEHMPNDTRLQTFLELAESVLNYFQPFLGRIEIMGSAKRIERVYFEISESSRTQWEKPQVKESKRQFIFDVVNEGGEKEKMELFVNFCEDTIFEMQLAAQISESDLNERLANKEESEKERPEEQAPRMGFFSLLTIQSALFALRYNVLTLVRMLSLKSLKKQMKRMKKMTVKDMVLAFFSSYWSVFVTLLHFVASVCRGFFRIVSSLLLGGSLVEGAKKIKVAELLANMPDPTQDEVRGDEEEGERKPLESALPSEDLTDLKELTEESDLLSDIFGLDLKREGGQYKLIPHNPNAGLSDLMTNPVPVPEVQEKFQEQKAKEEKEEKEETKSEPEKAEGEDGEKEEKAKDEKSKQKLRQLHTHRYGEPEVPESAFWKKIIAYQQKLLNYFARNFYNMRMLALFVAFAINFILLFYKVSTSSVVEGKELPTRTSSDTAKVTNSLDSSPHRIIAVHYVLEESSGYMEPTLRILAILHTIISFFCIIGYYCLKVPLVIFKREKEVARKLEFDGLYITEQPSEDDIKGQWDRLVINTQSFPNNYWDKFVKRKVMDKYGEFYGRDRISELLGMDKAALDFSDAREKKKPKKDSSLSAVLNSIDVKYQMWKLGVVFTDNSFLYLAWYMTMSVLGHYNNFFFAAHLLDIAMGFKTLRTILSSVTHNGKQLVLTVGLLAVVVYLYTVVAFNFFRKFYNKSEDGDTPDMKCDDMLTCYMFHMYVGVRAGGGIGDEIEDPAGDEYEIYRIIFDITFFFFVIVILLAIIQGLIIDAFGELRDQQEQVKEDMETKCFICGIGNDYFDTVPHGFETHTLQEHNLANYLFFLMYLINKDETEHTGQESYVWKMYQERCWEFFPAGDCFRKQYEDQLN

In the case of CCCCC[C@@H]1OC(=O)[C@@H](C)N(C)C(=O)[C@H](CCCCC)OC(=O)[C@@H](C)N(C)C(=O)[C@H](CCCCC)OC(=O)[C@@H](C)N(C)C1=O (single isomer, unassigned) [ent-B1], the IC50 [1] is reported as 1.9 µM and 1.93 µM, the remaining at 2 h, 1900 ng/mL [2] is reported as roughly 95% and the “RyR2-mediated Ca2+ spark frequency” value ([3]; 25 μM, 10 minutes incubation, vs vehicle (DMSO)) is reported as “significantly inhibited”. For the same compound, the “activity in the calcium spark assay (summary statement)” value ([3]; listed as 8) was “potent inhibitor” and the “activity in the calcium spark assay (summary statement)” value ([3]; listed as 18-membered COD) was “potent”.
